# According to ChEMBL document CHEMBL1743201, “Casarett and Doull's Toxicology The Basic Science of Poisons, 7th edition” (2008):
# Assays:
# [1] = molecular target: T1, Glutathione S-transferase A1 (Homo sapiens, UniProt P08263); test: Substrates for human cytosolic glutathione transferase GSTA1; format: ADME
# T1 sequence (P08263 whole entry): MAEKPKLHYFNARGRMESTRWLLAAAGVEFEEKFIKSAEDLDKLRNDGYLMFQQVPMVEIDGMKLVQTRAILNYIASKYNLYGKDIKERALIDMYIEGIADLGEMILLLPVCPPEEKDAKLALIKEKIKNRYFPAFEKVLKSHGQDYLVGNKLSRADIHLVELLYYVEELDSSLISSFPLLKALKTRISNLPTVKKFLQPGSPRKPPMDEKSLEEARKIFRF
# [2] = molecular target: Glutathione S-transferase A3 (Homo sapiens, UniProt Q16772); test: Substrates for human cytosolic glutathione transferase GSTA3; format: ADME
# Sequence of Glutathione S-transferase A3 (Q16772 whole entry): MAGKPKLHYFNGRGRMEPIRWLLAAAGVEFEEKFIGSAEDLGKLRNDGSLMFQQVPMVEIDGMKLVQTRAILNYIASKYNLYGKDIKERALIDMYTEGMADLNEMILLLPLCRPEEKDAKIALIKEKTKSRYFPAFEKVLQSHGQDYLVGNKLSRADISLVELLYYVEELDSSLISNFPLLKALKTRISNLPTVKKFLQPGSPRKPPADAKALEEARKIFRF
# [3] = molecular target: Microsomal glutathione S-transferase 2 (Homo sapiens, UniProt Q99735); test: Substrates for human microsomal glutathione transferase MGST2; format: ADME
# Sequence of Microsomal glutathione S-transferase 2 (Q99735 whole entry): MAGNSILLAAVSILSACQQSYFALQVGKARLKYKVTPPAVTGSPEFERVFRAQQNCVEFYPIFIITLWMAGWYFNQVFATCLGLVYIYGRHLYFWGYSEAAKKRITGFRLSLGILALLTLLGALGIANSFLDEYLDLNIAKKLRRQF
# [4] = molecular target: T2, Glutathione S-transferase A2 (Homo sapiens, UniProt P09210); test: Substrates for human cytosolic glutathione transferase GSTA2; format: ADME
# T2 sequence (P09210 whole entry): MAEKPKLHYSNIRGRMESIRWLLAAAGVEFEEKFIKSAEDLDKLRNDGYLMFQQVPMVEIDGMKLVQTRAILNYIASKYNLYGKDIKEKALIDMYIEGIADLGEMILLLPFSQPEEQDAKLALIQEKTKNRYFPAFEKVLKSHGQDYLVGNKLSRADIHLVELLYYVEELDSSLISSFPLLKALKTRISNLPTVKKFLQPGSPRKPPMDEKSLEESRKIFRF
# Cytochrome P450 2E1 = Cytochrome P450 2E1 (Homo sapiens, UniProt P05181); test: Clinically relevant substrates of human liver microsomal P450 enzymes, isoform CYP2E1; format: ADME; details: microsomes
# Sequence of Cytochrome P450 2E1 (P05181 whole entry, canonical isoform): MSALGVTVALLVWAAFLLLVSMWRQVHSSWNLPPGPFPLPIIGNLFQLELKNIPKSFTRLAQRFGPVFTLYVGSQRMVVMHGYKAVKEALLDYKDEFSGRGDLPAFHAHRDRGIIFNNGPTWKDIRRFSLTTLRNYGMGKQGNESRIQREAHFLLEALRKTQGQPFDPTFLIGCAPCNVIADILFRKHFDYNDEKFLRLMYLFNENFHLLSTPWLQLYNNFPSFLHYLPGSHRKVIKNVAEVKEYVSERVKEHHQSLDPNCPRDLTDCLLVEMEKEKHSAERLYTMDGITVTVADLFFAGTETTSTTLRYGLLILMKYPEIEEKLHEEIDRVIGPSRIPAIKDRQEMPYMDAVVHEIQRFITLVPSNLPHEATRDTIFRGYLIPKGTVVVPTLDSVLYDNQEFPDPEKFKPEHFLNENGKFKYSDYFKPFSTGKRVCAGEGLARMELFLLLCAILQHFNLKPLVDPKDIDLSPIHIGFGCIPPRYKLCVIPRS
# Sulfotransferase 4A1 = molecular target: T3, Sulfotransferase 4A1 (Homo sapiens, UniProt Q9BR01); test: Major substrate of human cytosolic sulfotransferase SULT4A1_v1; format: ADME
# T3 sequence (Q9BR01 whole entry): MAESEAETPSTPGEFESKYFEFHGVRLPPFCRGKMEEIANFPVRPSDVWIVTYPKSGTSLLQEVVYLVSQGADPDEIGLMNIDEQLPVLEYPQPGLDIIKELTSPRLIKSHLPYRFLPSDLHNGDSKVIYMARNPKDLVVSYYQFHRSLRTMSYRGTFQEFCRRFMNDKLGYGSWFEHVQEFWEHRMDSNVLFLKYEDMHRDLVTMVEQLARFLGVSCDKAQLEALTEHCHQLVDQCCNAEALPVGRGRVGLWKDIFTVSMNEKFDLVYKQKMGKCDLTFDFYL
# Sulfotransferase 1A1 = Sulfotransferase 1A1 (Homo sapiens, UniProt P50225); test: Major substrate of human cytosolic sulfotransferase SULT1A1; format: ADME
# Sequence of Sulfotransferase 1A1 (P50225 whole entry): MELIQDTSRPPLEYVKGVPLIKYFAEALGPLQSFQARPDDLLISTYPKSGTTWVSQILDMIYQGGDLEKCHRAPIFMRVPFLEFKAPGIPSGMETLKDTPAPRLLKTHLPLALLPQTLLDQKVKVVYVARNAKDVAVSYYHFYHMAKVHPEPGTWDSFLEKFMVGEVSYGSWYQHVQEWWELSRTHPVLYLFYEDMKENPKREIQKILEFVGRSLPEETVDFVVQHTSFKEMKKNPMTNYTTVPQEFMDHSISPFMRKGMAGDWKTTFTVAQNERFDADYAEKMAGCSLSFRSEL
# Sulfotransferase 1A2 = Sulfotransferase 1A2 (Homo sapiens, UniProt P50226); test: Major substrate of human cytosolic sulfotransferase SULT1A2; format: ADME
# Sequence of Sulfotransferase 1A2 (P50226 whole entry): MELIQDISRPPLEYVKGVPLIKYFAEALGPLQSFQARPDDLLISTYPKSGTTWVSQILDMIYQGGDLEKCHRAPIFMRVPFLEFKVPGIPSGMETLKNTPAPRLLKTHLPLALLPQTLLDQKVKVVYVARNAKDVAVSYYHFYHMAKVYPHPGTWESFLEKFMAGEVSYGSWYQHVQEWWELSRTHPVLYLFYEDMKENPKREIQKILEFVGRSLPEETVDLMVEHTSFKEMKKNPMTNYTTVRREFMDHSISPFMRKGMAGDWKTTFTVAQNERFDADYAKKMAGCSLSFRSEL
# [5] = molecular target: Glutathione S-transferase Mu 3 (Homo sapiens, UniProt P21266); test: Substrates for human cytosolic glutathione transferase GSTM3; format: ADME
# Sequence of Glutathione S-transferase Mu 3 (P21266 whole entry): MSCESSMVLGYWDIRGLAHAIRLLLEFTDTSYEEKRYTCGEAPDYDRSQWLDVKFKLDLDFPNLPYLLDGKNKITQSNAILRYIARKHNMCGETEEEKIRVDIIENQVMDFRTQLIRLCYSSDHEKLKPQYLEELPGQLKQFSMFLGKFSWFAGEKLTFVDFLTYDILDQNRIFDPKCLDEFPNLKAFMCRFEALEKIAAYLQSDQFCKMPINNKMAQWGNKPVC
# [6] = molecular target: T4, Glutathione S-transferase theta-1 (Homo sapiens, UniProt P30711); test: Substrates for human cytosolic glutathione transferase GSTT1; format: ADME
# T4 sequence (P30711 whole entry): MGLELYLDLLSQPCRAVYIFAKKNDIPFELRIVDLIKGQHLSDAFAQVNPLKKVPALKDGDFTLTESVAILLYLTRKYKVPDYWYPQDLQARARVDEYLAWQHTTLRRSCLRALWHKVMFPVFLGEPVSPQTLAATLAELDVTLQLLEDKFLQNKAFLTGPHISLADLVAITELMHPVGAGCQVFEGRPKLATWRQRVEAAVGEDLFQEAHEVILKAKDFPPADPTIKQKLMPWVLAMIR
# [7] = molecular target: T5, Nuclear receptor subfamily 1 group I member 3 (Homo sapiens, UniProt Q14994); test: Constitutive androstane receptor inverse agonist
# T5 sequence (Q14994 whole entry): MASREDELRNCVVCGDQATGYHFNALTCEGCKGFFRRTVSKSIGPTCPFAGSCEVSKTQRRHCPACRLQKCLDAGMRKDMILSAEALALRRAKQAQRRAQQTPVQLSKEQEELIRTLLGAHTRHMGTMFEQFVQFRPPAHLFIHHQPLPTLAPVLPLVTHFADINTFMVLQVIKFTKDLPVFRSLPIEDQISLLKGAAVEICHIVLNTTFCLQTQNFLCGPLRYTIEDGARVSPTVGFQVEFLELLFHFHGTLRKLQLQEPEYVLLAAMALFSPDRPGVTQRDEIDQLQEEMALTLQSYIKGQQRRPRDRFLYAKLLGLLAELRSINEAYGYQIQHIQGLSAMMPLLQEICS
# [8] = molecular target: T6, Nuclear receptor subfamily 1 group I member 3 (Mus musculus, UniProt O35627); test: Constitutive androstane receptor agonist
# T6 sequence (O35627 whole entry): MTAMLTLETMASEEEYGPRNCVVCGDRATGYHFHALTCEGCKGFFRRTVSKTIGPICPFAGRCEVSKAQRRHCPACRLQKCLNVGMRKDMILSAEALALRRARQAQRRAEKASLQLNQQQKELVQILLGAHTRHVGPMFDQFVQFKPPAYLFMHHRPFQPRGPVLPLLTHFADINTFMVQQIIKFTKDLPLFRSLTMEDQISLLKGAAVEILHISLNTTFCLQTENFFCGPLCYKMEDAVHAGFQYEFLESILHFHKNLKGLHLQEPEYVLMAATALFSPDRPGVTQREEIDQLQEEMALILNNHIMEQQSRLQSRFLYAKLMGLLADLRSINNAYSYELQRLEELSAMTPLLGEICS
# [9] = molecular target: T7, Glutathione S-transferase kappa 1 (Homo sapiens, UniProt Q9Y2Q3); test: Substrates for human mitochondrial glutathione transferase GSTK1; format: ADME
# T7 sequence (Q9Y2Q3 whole entry): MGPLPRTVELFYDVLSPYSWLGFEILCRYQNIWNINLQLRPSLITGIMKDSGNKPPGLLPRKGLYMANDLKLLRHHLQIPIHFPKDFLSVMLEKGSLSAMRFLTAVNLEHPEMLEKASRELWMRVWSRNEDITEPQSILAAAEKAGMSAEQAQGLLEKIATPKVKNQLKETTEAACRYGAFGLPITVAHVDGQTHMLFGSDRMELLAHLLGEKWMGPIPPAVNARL
# [10] = molecular target: Glutathione S-transferase theta-2 (Homo sapiens, UniProt P0CG29); test: Substrates for human cytosolic glutathione transferase GSTT2; format: ADME
# Sequence of Glutathione S-transferase theta-2 (P0CG29 whole entry): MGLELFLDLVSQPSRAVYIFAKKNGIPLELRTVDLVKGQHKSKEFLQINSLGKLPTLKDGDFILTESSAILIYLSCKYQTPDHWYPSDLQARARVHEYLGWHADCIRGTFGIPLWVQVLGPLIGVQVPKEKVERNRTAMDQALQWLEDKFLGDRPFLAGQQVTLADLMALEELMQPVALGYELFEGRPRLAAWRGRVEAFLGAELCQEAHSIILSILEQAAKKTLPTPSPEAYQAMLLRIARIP
# [11] = molecular target: T8, Microsomal glutathione S-transferase 1 (Homo sapiens, UniProt P10620); test: Substrates for human microsomal glutathione transferase MGST1; format: ADME
# T8 sequence (P10620 whole entry): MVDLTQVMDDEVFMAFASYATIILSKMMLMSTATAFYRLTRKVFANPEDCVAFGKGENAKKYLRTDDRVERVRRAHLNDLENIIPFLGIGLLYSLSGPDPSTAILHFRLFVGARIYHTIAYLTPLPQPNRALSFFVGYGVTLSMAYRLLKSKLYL
# [12] = molecular target: T5, Nuclear receptor subfamily 1 group I member 3; test: (§1) Constitutive androstane receptor indirect activator; format: ADME
# [13] = molecular target: T6, Nuclear receptor subfamily 1 group I member 3; test: as §1; format: ADME
# Cytochrome P450 2C9 = Cytochrome P450 2C9 (Homo sapiens, UniProt P11712); test: Clinically relevant substrates of human liver microsomal P450 enzymes, isoform CYP2C9; format: ADME; details: microsomes
# Sequence of Cytochrome P450 2C9 (P11712 whole entry, canonical isoform): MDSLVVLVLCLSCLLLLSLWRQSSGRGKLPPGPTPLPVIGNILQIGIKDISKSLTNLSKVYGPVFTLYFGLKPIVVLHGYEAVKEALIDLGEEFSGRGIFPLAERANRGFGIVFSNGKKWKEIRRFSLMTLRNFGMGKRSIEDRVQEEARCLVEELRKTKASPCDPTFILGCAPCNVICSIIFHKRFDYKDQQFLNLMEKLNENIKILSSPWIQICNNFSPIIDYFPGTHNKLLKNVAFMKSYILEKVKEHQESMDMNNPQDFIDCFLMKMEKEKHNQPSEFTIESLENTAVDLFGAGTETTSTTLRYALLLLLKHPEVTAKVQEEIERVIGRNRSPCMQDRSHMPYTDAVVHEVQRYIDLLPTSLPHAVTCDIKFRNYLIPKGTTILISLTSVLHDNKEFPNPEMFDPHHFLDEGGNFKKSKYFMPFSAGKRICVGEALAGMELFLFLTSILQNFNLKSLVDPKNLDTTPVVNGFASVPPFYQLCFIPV
# Cytochrome P450 2B6 = molecular target: T9, Cytochrome P450 2B6 (Homo sapiens, UniProt P20813); test: Clinically relevant inducers of human liver microsomal P450 enzymes, isoform CYP2B6; format: ADME; details: microsomes
# T9 sequence (P20813 whole entry): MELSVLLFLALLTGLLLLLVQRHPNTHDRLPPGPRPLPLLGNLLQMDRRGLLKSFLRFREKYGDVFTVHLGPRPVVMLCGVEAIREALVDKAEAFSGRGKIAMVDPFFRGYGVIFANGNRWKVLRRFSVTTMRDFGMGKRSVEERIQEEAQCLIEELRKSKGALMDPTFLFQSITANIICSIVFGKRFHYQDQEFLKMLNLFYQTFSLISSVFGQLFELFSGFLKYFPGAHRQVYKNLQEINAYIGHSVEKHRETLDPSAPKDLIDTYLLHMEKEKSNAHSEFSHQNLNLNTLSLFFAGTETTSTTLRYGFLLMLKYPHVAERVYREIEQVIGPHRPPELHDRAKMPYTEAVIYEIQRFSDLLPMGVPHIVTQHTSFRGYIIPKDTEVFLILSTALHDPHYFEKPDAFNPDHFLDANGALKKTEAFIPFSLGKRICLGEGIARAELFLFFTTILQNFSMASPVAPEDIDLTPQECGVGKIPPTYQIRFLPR
# Cytochrome P450 2A6 = molecular target: T10, Cytochrome P450 2A6 (Homo sapiens, UniProt P11509); test: Clinically relevant inhibitors of human liver microsomal P450 enzymes, isoform CYP2A6; format: ADME; details: microsomes
# T10 sequence (P11509 whole entry): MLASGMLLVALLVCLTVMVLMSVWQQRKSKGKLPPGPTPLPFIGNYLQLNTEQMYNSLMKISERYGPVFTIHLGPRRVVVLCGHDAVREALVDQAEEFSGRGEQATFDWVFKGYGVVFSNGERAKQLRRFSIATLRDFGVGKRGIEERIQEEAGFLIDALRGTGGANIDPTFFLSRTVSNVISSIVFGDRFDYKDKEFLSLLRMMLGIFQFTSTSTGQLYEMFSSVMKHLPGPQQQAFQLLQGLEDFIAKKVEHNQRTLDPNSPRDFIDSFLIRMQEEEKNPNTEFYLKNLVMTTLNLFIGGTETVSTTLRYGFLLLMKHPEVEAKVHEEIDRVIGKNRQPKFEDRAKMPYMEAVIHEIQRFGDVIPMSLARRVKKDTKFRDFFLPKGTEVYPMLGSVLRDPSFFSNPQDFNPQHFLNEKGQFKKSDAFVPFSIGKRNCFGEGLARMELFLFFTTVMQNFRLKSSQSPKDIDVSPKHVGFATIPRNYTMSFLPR
smiles,measurement,setting,value
C[C@]12CCC(=O)CC1=CC[C@@H]1[C@@H]2CC[C@]2(C)C(=O)CC[C@@H]12,Activity,[1],Substrate
same,Activity,[2],Substrate
CCCCC/C=C\C/C=C\C/C=C\C=C\[C@H](CCCC(=O)O)OO,Activity,[3],Substrate
O=[N+]([O-])c1ccc(Cl)c2nonc12,Activity,[4],Substrate
Nc1ccccc1 [ANILINE],Activity,Cytochrome P450 2E1,Substrate
Oc1ccc2ccccc2c1 [BETANAPHTHOL],Activity,Sulfotransferase 4A1,Substrate
same,Activity,Sulfotransferase 1A1,Substrate
same,Activity,Sulfotransferase 1A2,Substrate
O=NN(CCCl)C(=O)NCCCl [CARMUSTINE],Activity,[5],Substrate
same,Activity,[6],Substrate
CN(C)CCCN1c2ccccc2Sc2ccc(Cl)cc21 [CHLORPROMAZINE],Activity,[7],inverse agonist
same,Activity,[8],agonist
Clc1ccccc1C(c1ccccc1)(c1ccccc1)n1ccnc1 [CLOTRIMAZOLE],Activity,[8],agonist
CC(C)(OO)c1ccccc1 [CUMENE HYDROPEROXIDE],Activity,[4],Substrate
same,Activity,[9],Substrate
same,Activity,[10],Substrate
same,Activity,[11],Substrate
"OC1c2c(cc3ccc4cccc5c6ccccc6c2c3c45)C2OC2C1O (configuration not stated) [DIBENZO[A,L]PYRENE DIOL EPOXIDE]",Activity,[1],Substrate
same,Activity,[4],Substrate
same,Activity,[2],Substrate
CCCCCCCCCCCC(=O)O [DODECANOATE],Activity,Cytochrome P450 2E1,Substrate
ClC(Cl)=C(Cl)C(Cl)=C(Cl)Cl [HEXACHLOROBUTADIENE],Activity,[11],Substrate
Cc1cccc(CN2CCN(C(c3ccccc3)c3ccc(Cl)cc3)CC2)c1 (configuration not stated) [MECLIZINE],Activity,[7],inverse agonist
same,Activity,[8],agonist
O=S(=O)(O)Cc1ccc2ccccc2c1 [MENAPHTHYL SULFONATE],Activity,[10],Substrate
O=C1NC(=O)C(c2ccccc2)(c2ccccc2)N1 [PHENYTOIN],Activity,[12],indirect activator
same,Activity,[13],indirect activator
same,Activity,Cytochrome P450 2C9,Substrate
same,Activity,Cytochrome P450 2B6,Inducer
CC[C@@H]1C(=O)OC[C@@H]1Cc1cncn1C [PILOCARPINE],Activity,Cytochrome P450 2A6,Inhibitor
N[C@@H]1C[C@H]1c1ccccc1.N[C@H]1C[C@@H]1c1ccccc1 [TRANYLCYPROMINE],Activity,Cytochrome P450 2A6,Inhibitor
NCCc1c[nH]c2ccccc12 [TRYPTAMINE],Activity,Cytochrome P450 2A6,Inhibitor
